Measurements from US11135340B2, “Compositions and methods for preparation of composite polymer coatings on medical implants, and their use for co-delivery of multiple antimicrobial agents” (THE JOHNS HOPKINS UNIVERSITY, priority 2016, dated 2021).
Read-outs that look alike come from different tables or passages of the source.

What was measured:
XEN36 = test: MIC of XEN36 for each antibiotic; type: cell-based, Staphylococcus aureus; details: S. aureus XEN36
[1] = In vitro release of antibiotics from composite coatings on titanium K-wire implants; type: physicochemical; details: for release kinetics after storage: coated pins stored 6 weeks room temperature, 6 weeks −20° C. or 8 months frozen, vs fresh; for Day 1 release of Gentamicin: of total loading
Description: The release rate of the polymer composite film was measured by HPLC. Drug release studies were conducted using coated pins created with the same loading parameters as those used for later in vivo testing (10% (w/w) drug combinations) electrospun for 60 seconds at injection rates of 0.5 mL/h from each needle. Release rate of antibiotics from the composite polymer coating was characterized by placing coated pins in 200 μL pH 7.4 PBS buffer and incubating at 37° C. in an aluminum film-covered incubator to prevent possible light-induced drug degradation. Release media was changed at fixed time points over a period of two weeks and stored in a −20° C. freezer until analysis. Drug concentrations in release media for each day were determined via reverse-phase HPLC using a C-18 column in an Alliance HPLC system and Waters 2996 PDA detector. The mobile phase was a mixture of acetonitrile and water both mixed with 0.1% TFA acid, which was run at a gradient from (15%/85%) to (40%/60%) for a total runtime of 15 minutes per sample for the elution of Van/Rif and Lin/Rif drug loading groups. Elution of the Dap/Rif loading group was conducted using a mobile phase of (49%/51%) of acetonitrile and water both mixed with 0.1% TFA acid for a total run time of 11 minutes per sample. Concentrations of the drugs were quantified using wavelengths of 343 nm for Rif, 254 nm for Lin, 280 nm for Van and 223 nm for Dap using prepared standard curves for all three drugs. […] Quantification was performed through the derivatization of Gentamicin with ninhydrin at 95° C. for 15 minutes and detection with a Biotek Synergy2 plate reader.
Drug release studies were conducted using coated pins created with the same loading parameters as detailed above. Release kinetics of antibiotics from the composite coating were characterized by placing coated pins in 200 μL of phosphate buffer saline (PBS, pH 7.4) at 37° C. Release media was changed daily over a period of two weeks and stored at −20° C. until analysis. Drug concentrations in release media were measured on days 1, 2, 3, 5, 7, 10 and 14 using a Waters Alliance 2690 HPLC system (Waters Corporation, Milford, Mass.) equipped with an Accucore RP-MS C18 column (100 mm×2.1 mm; Thermo Fisher Scientific) and a Waters 2996 PDA detector. The elution was carried out with a mobile phase of water and acetonitrile both mixed with 0.1% TFA at a flow rate of 1 mL/min at ambient temperature using a linear gradient elution program of 85% water to […] in 15 minutes. Concentrations of the drugs were quantified using wavelengths for Van (280 nm), Lin (254 nm), Dap (224 nm) and Rif (263 nm).

S. aureus = test: In vitro zone of inhibition assay of coated K-wires; type: cell-based, Staphylococcus aureus; details: any of the storage conditions vs freshly prepared coatings
Excerpt: A zone of inhibition assay was used as an additional assay to evaluate the in vitro release of antibiotic(s) from the composite coating. Tryptic soy agar bacterial plates were inoculated with S. aureus bacteria cells to yield a bacterial lawn after overnight culture. After bacterial inoculation and before culturing the plates, two identical titanium K-wires loaded with either 10 w/w % Lin, 10 w/w % Van, or 10 w/w % Dap alone, or in combination with Rif were placed in two separate areas on the plate. After culturing the plates at 37° C. for 24 hours, the antimicrobial activity of the eluded antibiotic(s) into the agar was measured as a zone of inhibition (diameter [mm]) of the bacterial growth around the K-wire.
Long-term efficacy of the antimicrobial activity was tested by storing electrospun pins at room temperature for 6 weeks, −20° C. for 6 weeks, and −80° C. for 8 months. Coated pins were protected from light during storage. These pins were then used in the same zone of inhibition assay as described hereinabove. These antimicrobial results were further confirmed with a two-week in vitro release study to determine release kinetics after storage.
Tryptic soy agar (TSA) bacterial plates were inoculated with S. aureus to yield a bacterial lawn after overnight culture. Before culturing the plates, two titanium K-wires each loaded with the same combination of antibiotics from each set were placed in two separate areas on the plate. After culturing at 37° C. for 24 hours, the zone of inhibition (ZOI) (diameter/mm) of bacterial growth were measured.

[2] = In vivo release kinetics of ICG from PCL coating by fluorescence imaging; parameters: species or system mice; details: ICG loaded PCL coating on K-wire in mouse femur
Excerpt: FIG. 9A and FIG. 9B show in vivo release kinetics as measured by PCL coatings impregnated with a near-infrared (NIR) fluorescent dye Indocyanine green (ICG) as a surrogate for the antibiotic loaded coatings.
The near-infrared (NIR) fluorescence imaging dye indocyanine green (ICG) was used as a surrogate model for drug loading and release in an established mouse model (described in Example 4) to monitor the in vivo release kinetics from PCL coating (FIG. 9A and FIG. 9B). ICG loaded PCL was coated onto titanium K-wire (described in Example 1). The implants were surgically placed in a retrograde fashion with 1 mm protruding into the joint space of mice. The release of ICG was measured by its fluorescence intensity at different time points.

[3] = system: S. aureus bioluminescent strain Xen36; test: Mouse model of prosthetic joint infection: in vivo bioluminescence imaging and CFU; parameters: species or system mice; details: intravenous prophylaxis 110 mg/kg at −1 and 16 hours
[4] = Staphylococcus aureus, read-out: MIC

For `CCCCCCCCCC(=O)N[C@@H](Cc1c[nH]c2ccccc12)C(=O)N[C@H](CC(N)=O)C(=O)N[C@@H](CC(=O)O)C(=O)N[C@@H]1C(=O)NCC(=O)N[C@@H](CCCN)C(=O)N[C@@H](CC(=O)O)C(=O)N[C@H](C)C(=O)N[C@@H](CC(=O)O)C(=O)NCC(=O)N[C@H](CO)C(=O)N[C@@H]([C@H](C)CC(=O)O)C(=O)N[C@@H](CC(=O)c2ccccc2N)C(=O)O[C@@H]1C` [Dap, daptomycin], the MIC (XEN36; [4]) was 0.25 µg/mL, the “release kinetics after storage” value [1] was “no difference in the release kinetics” and the “antimicrobial activity (zone of inhibition) after storage” value (S. aureus) was “no significant loss of antimicrobial activity”.
With `CC1(C)C(/C=C/C=C/C=C/C=C2\N(CCCCS(=O)(=O)O)c3ccc4ccccc4c3C2(C)C)=[N+](CCCCS(=O)(=O)[O-])c2ccc3ccccc3c21` [ICG, indocyanine green] the “duration of ICG release” value [2] was “over two weeks” and the “peak dissolution of ICG” value [2] was 1 days.
With `CC(=O)NC[C@H]1CN(c2ccc(N3CCOCC3)c(F)c2)C(=O)O1` [Lin, linezolid] the MIC (XEN36; [4]) was 2 µg/mL, the “release kinetics after storage” value [1] was “no difference in the release kinetics” and the “antimicrobial activity (zone of inhibition) after storage” value (S. aureus) was “no significant loss of antimicrobial activity”.
With `CO[C@H]1/C=C/O[C@@]2(C)Oc3c(C)c(O)c4c(O)c(c(/C=N/N5CCN(C)CC5)c(O)c4c3C2=O)NC(=O)/C(C)=C\C=C\[C@H](C)[C@H](O)[C@@H](C)[C@@H](O)[C@@H](C)[C@H](OC(C)=O)[C@@H]1C` [Rif, Rifampin] the MIC (XEN36; [4]) was 0.5 µg/mL, the “release of Rif out of the composite film coating after storage (reduced or not)” value ([1]; pins stored at −20° C.) was “not when the pins were stored at −20 °C” and the “release of Rif out of the composite film coating after storage” value ([1]; storage at room temperature for six weeks) was “reduced”. For the same compound, the “Rif remains above the MIC” value ([1]; tuned by PCL molecular weight or PCL layer thickness) was 2 to 5 days and the “antimicrobial activity (zone of inhibition) after storage” value (S. aureus) was “no significant loss of antimicrobial activity”.
In the case of `CN[C@H](CC(C)C)C(=O)N[C@H]1C(=O)N[C@@H](CC(N)=O)C(=O)N[C@H]2C(=O)N[C@H]3C(=O)N[C@H](C(=O)N[C@H](C(=O)O)c4cc(O)cc(O)c4-c4cc3ccc4O)[C@H](O)c3ccc(c(Cl)c3)Oc3cc2cc(c3O[C@@H]2O[C@H](CO)[C@@H](O)[C@H](O)[C@H]2O[C@H]2C[C@](C)(N)[C@H](O)[C@H](C)O2)Oc2ccc(cc2Cl)[C@H]1O` [Van, vancomycin], the MIC (XEN36; [4]) is reported as 0.5 µg/mL, the “release kinetics after storage” value [1] is reported as “no difference in the release kinetics” and the “antimicrobial activity (zone of inhibition) after storage” value (S. aureus) is reported as “no significant loss of antimicrobial activity”. For the same compound, the BLI signals [3] was “decreased BLI signals” and the “clearance of infection (CFU from bone/joint tissue and implants)” value [3] was “the infection was not cleared”.
For Gentamicin, the MIC (XEN36) was “roughly 10 μg/mL”, the Gentamicin release profile ([1]; 50:50 PLGA) was “sustained release” and the Gentamicin release profile ([1]; 75:25 PLGA) was “only a burst release”. The “release of Gentamicin above the MIC” value ([1]; controlled by polymer choice (PLA:PGA ratio of PLGA)) was 2 to 14 days, the “Day 1 release of Gentamicin” value ([1]; PLGA nanofibers alone) was 80% and the “Day 1 release of Gentamicin” value ([1]; PLGA nanofibers embedded in PCL film layer) was “less than 45%”. The “Gentamicin MIC concentration sustained” value ([1]; release from PLGA nanofibers of composite coating, FIG. 11A) was “up to 14 days”.
